Measured values published in patent US6951727B2, “Methods and reagents for quantitation of cell-surface molecule expression on peripheral blood cells” (Becton Dickinson and Company, priority 1998, dated 2005).
Entries after “also recorded” stand apart in the source; their conditions may differ. Like-named read-outs stand apart in the source and are kept apart here.

Columns and labels:
[1] = test system: HLA-DR on CD14+ peripheral blood monocytes; test: Stabilization of HLA-DR-specific fluorescent signal during anti-HLA-DR antibody staining of whole blood, flow cytometry; format: cell-based, human
Protocol: Peripheral blood samples were drawn from normal volunteers.
The time-dependence of the HLA-DR-specific signal detectable by flow cytometry of antibody-stained peripheral blood monocytes was assessed by varying the duration of antibody staining.
The effect of various additives on the stability of HLA-DR-specific fluorescence intensity was tested by including these reagents during the staining step.
Incubation was at room temperature for the times indicated, after which 1 ml of 1× FACS™ Lysing Solution was added and incubation continued for 10 minutes.
Following erythrocyte lysis, the samples were centrifuged at 250×g for 5 minutes, the supernatant removed, the pellet resuspended in 2 ml of PBS+0.5% BSA and recentrifuged. The final pellet was suspended in 0.5 ml of PBS+BSA and analyzed by flow cytometry, as above. Results are plotted in FIG. 2A.
A second experiment, reported in FIG. 2B, was performed similarly, but omitting the post-lysis wash step: following erythrocyte lysis, the samples were centrifuged at 250×g for 5 minutes, the supernatant, containing lysis debris, removed, and the pellet resuspended directly in 0.5 ml of PBS+0.5% BSA. Again, flow cytometric acquisition of at least 2000 monocyte events was performed, and the PE fluorescence intensity of the monocyte population plotted.
To test whether Brefeldin A and monensin would similarly stabilize HLA-DR expression in the flow cytometric assay, an additional series of experiments was performed.
To 50 μl EDTA-anticoagulated whole blood was added 10 μl staining reagent (500 ng of HLA-DR-PE and 63 ng CD14-PerCP/CY5.5 in buffered saline containing gelatin and 0.1% sodium azide); the staining reagent further included the additives noted below. Samples were incubated with staining reagent for the times indicated, after which 1 ml of 1× FACS™ Lysing Solution was added. After incubation with lysing solution for 9.5 to 11.5 minutes, samples were directly analyzed using a FACSCalibur™ brand flow cytometer (BDIS, San Jose, Calif.).
Additives to the staining composition for this latter series of experiments, reported in FIG. 2C, were: (A) nothing (“Control”); (B) 18 mM chloroquine; (C) 0.2 mM Brefeldin A; and (D) 0.013 mM monensin. Final concentrations of additives after 1:6 dilution during staining were: (B) 3 mM chloroquine; (C) 0.034 mM Brefeldin A; and (D) 0.0022mM monensin. […] 212:89-98 (1998).
The data presented in FIG. 2C were acquired immediately after lysis; in contrast to experiments the results of which are presented in FIG. 1, the removal of lysis debris (by centrifugation and aspiration, optionally followed by wash) was omitted.
A further experiment was performed to determine the minimum concentration of chloroquine needed to effect stabilization of HLA-DR expression on the surface of monocytes.
An aliquot of 50 μl peripheral blood was drawn from a healthy volunteer and mixed with 10 μl HLA-DR quantitation reagent (50 μg/ml HLA-DR PE, 6.3 μg/ml CD14 PerCP-Cy5.5, in 10 mM sodium pyrophosphate, 0.15 M NaCl, pH 8). The HLA-DR quantitation reagent further contained chloroquine at 0 mM (control), 6 mM, 12 mM, or 18 mM.
In each experiment, 4 blood samples were stained for each chloroquine level, with one each of the samples stained for 20, 40, 60 or 80 minutes.
At the end of the staining period, the samples were lysed with 1× FACS™ Lysing Solution (BDIS) and analyzed on a FACScalibur Flow Cytometer. Five hundred monocyte events were collected.

[2] = test system: CD11b on human blood cells; test: Stabilization of CD11b-specific fluorescent signal during antibody staining of whole blood, flow cytometry; format: cell-based; conditions: 3 mM final concentration, whole blood of three normal donors
Protocol: Blood from three normal adult donors was collected in standard EDTA Vacutainer® tubes and placed directly on ice. Fifty (50) μl of whole blood was transferred to a tube containing 20 μl of a cocktail of CD11b PE and CD45 PerCP antibodies with or without chloroquine, with the chloroquine-containing tubes having a final chloroquine concentration of 3 mM. Blood was stained for the indicated time at room temperature before addition of 1.0 ml FACS lysing reagent (1×). Flow cytometric analysis was performed essentially as described in Examples 1 and 2.

[3] = test system: monocyte HLA-DR expression; conditions: cited from earlier work
[4] = additive during staining, final concentration 3 mM chloroquine, 0.1% azide, 0.034 mM Brefeldin A, 0.0022 mM monensin, 10-15 to 60 min incubation

CCN(CC)CCCC(C)Nc1ccnc2cc(Cl)ccc12 (stereo not shown) [chloroquine]
minimum concentration needed to effect HLA-DR stabilization [1]: 2 mM | stabilization of HLA-DR expression at 1 mM [1]: insufficient to effect stabilization | stabilization of HLA-DR fluorescence signal over incubation time [1]: reliably stabilized HLA-DR fluorescence; also recorded: stabilizes the HLA-DR fluorescence signal | stabilization of CD11b fluorescent signal over staining time [2]: can similarly be stabilized

Gamma interferon: proinflammatory cytokine, major activator of monocytes
patients showing an increase in monocyte HLA-DR expression within 1 day of treatment ([3]; of 10 septic patients with fewer than 30% HLA-DR positive monocytes): 8 | patients responding within 2 to 3 days ([3]; of 10 septic patients): 2 | TNFα and IL-6 plasma levels during treatment ([3]; septic patients): significant increase

CCN(CCO)CCCC(C)Nc1ccnc2cc(Cl)ccc12 (stereo not shown) [hydroxychloroquine]
stabilizing HLA-DR signal compared with chloroquine ([1]; experiments not shown): equally effective

CC[C@@]1([C@@H]2O[C@@H]([C@H]3O[C@@](O)(CO)[C@H](C)C[C@@H]3C)C[C@@H]2C)CC[C@H]([C@]2(C)CC[C@]3(C[C@H](O)[C@@H](C)[C@@H]([C@@H](C)[C@@H](OC)[C@H](C)C(=O)O)O3)O2)O1 [monensin]
stabilization of HLA-DR fluorescence signal over incubation time [1, 4]: no significant stabilization

C[C@H]1CCC/C=C/[C@@H]2C[C@H](O)C[C@H]2[C@H](O)/C=C/C(=O)O1 [Brefeldin A]
stabilization of HLA-DR fluorescence signal over incubation time [1, 4]: no significant stabilization
